Assay results taken from patent US5770688A, “Method and composition for the treatment of mammalian HIV infection” (GSF-Forschungszentrum fur Umwelt und Gesundheit GmbH, priority 1989, dated 1998).

Columns and labels:
non-infected cells = assay: MTT toxicity/killing of non-infected cells (Biomek 1000); format: cell-based
Protocol: The KE37-1 (uninfected) and KE37-1/111β (infected) cell lines discussed below are commercially available from the Dr. Robert Gallows Laboratory of the NIH in the United States of America and grown in a medium of RPMI 1640 (GIBCO) and further supplemented with 10% fetal calf serum which contained approximately 100 units of penicillin, 100 μg streptomycin, and approximately 0.25 μg fungizone (Amphotericin B) per milliliter. The human mesenchymal cell lines LC5 and LC5-HIV, discussed below, are deposited with the Collection De L'Institut Pasteur of Paris, France on Mar. 9, 1989 and given the accession numbers I-842 and I-843, respectively. […]
In the present series of experiments HIV release was tested by a fully automated laboratory robot system and which is manufactured by Beckman Instruments as the Biomek 1000. […] The number of living cells are quantified by MTT, that is by a metabolic (dehydrogenase) test. […] The toxic effect is detected at the time of the experiment and not in a separate control experiment. Furthermore, the supernatant, and which contains released virus cells from the period of time which elapsed from the last wash, and which may vary from 24 hours to 7 days, is collected from the culture, and an aliquot is saved for virus quantification by employing antigen or viral enzyme reverse transcriptase (RT). […]

HIV = assay: relative infectious nature of culture supernatant, indirect immunoperoxidase staining of LC5 cells; format: cell-based
Protocol: Referring more particularly to FIGS. 1-4, melittin (Seq. ID NO:1) and its specified analogues were tested for their effect on HIV-infected T-lymphoma cells. In this regard the following cell lines were employed in the testing: KE37-1 (uninfected) and KE37-1/111S (infected with HTLV-111β). These infected cells were incubated for a period of seven days under test conditions at a temperature of 37° C. and in the presence of 5% CO2. A culture medium of RPMI 1640 (GIBCO) was employed and was further supplemented with 10% fetal calf serum which contained approximately 100 units of penicillin, 100μ of streptomycin, and approximately 0.25μ fungizone (Amphotericin B) per milliliter. […] A first test was conducted for purposes of determining the relative cell concentration as a function of the number of HIV infected cells present by employing an MTT test. The MTT test was carried out in microtiter plates according to T. Mosmann, "Rapid Colorimetric Assay for Cellular Growth and Survival: Application to Proliferation and Cytotoxicity Assays," Journal of Immunological Methods, v. 65 (1983), pp. 55-63. The MTT test was slightly modified: 10 μl of an MTT solution (5 mg/ml MTT dissolved in PBS, sterilized by filtration; MTT is 3-(4,5-Dimethylthiazole-2-yl)-2,5-diphenyltetrazolimbromide) were added to every well. […] The optical density (OD) of the solution was determined at=600 nm. […]

Gly-Ile-Gly-Ala-Val-Leu-Lys-Val-Leu-Thr-Thr-Gly-Leu-Pro-Ala-Leu-Ile-Ser-Trp-Ile-Lys-Arg-Lys-Arg-Gln-Gln-Amide [melittin]
critical concentration at which all non-infected cells were killed (non-infected cells): 10 μg per ml | ability of the cells to infect (INF%) (HIV; 2.5 μg per ml, FIG. 2): revert substantially back to zero | supernatant infectivity (HIV; single treatment at cultivation start, subtoxic concentrations, seven days post treatment): supernatant infectivity was reduced
